Assays:
Type in all cases: cell-based
[1] = tested on: cyclic AMP responsive promoter (pCRE-d2EGFP) in HEK-293T cells; test: STEP D1 activation experiment, control vector pCMV.Neo with pCRE-d2EGFP reporter; conditions: HEK-293T cells transfected with control vector CMV.Neo and pCRE-d2EGFP; 48 hours; GFP fluorescence, MCID image analysis
Experimental: (§1) The purpose of the experiment was to measure activation of the D1 dopamine receptor by a D1 receptor agonist, Chloro-APB (C1-APB). Activation of the D1 receptor by C1-APB could be measured by virtue of it's coupling to adenylate cyclase and subsequent generation of cyclic AMP, as indicated by the pathway shown in FIG. 3.
(§2) Three hundred nanograms of pCMV.D1 (or control vector pCMV.Neo) and 300 ng of pCRE-d2EGFP in 10 microliters were mixed with 10 microliters of transferrin-polylysine complex (1 mg/ml). After 10 minutes, 10 microliters of lipofectamine (1 mg/ml) were added and the mixture incubated for an addition 10 minutes. Spots of approximately 100 nanoliters were placed onto four different polylysine coated microscope slides, and the spots allowed to dry under ambient room conditions. HEK-293T cells were then plated onto three slides, while one slide was grown only in media containing serum. The three slides plated with cells were grown in the presence of either C1-APB or the phosphodiesterase inhibitor IBMX or both C1-APB and IBMX.
(§3) After 48 hours, the cells were examined using fluorescence microscopy.

[2] = target: T1, human D1 dopamine receptor (Homo sapiens, UniProt P21728); test: STEP D1 dopamine receptor activation assay with pCRE-d2EGFP reporter; conditions: 48 hours, C1-APB 1 micromolar; for Pixels per spot in STEP D1 activation experiment: HEK-293T cells transfected with CMV.D1 and pCRE-d2EGFP, GFP fluorescence, MCID image analysis
T1 construct: expressed in transfected cells; host or cells: HEK-293T
Experimental: as §1
as §2, with “HEK-293T cells were then plated onto three slides, while one slide was grown only in media containing serum.” left out
as §3

[3] = tested on: tetracycline responsive element; test: Transactivation assay using a tetracycline inducible system (pBi-EGFP) after STEP transfection; conditions: HEK TetOn cells; 10 mg/ml of doxycycline; 48 hours after plating
Experimental: To determine whether STEP transfection could be modified to generate inducible expression of a protein, the tetracycline inducible system developed by Bujard and coworkers was employed (Baron et al. (2000) Proc Natl Acad Sci USA 96:1013-1018). […] Two DNA complexes were prepared for these experiments, one containing the pBi-EGFP plasmid (Clontech) directing the expression of EGFP under the control of a tetracycline responsive element and another complex containing pEGFP-C1 plasmid DNA (Clontech) with EGFP expression under the control of the strong human cytomegalovirus early promoter. Spots for each of these complexes were applied next to each other on each of two different microscope slides and HEK TetOn cells were plated onto each slide in separate 10 cm culture dishes. Twenty-four hours after transfection, one plate was incubated in DMEM and 10% FCS while the other was incubated in the same media containing 10 mg/ml of doxycycline. Fluorescence photomicrographs were prepared 48 hours after plating of the cells. […] In the absence of doxycycline, none of the cells on the pBiEGFP spot were fluorescent while approximately 30% of the cells on the pEGFP-C1 spot were fluorescent.

[4] = target: T2, human MC1R (Homo sapiens, UniProt Q01726); test: Dose response of melanocortin receptor 1 agonists, pCRE-Luciferase reporter, 96 well STEP; conditions: increasing concentrations, 6 hours; HEK-239T cells; FIG. 8
T2 construct: expressed in transfected cells; host or cells: HEK-293T
Experimental: In the following examples a polylysine coated 96 well plate was used. DNA transfection complexes were generated essentially as described in Example 1. The components a-d from Example 1 were added sequentially but without the 5 min. incubation. The DNA transfection complexes were applied by direct pipetting (complexes can also be applied by automated liquid handling systems) to the bottom of each well in a total volume of 20 μl, and the spots were allowed to dry under ambient conditions until completely dry. HEK-293T cells were prepared as in Example 1.200 μl of media containing 10^4 HEK-293T cells were added to each well. When using the expression vector pZsGreen-N1 (Clontech BD), which encodes a variant of wild-type Zoanthus sp. green fluorescent protein ZsGreen; (excitation maximum=496 nm; emission maximum=506 nm. Ref: Matz, M. V., et al. (1999) Nature Biotech. 17:969-973), the cells were visualized using fluorescent microscopy after 24 and 48 hours following transfections.
DNA complexes were formed with human MC1R cDNA (GenBank Accession No. X67594) and with either pCRE-Luciferase or the control plasmid pTal-Luciferase (lacking the CRE binding sequences). The complexes were applied to the surface of individual wells of a polylysine coated 96 well plate; after complete drying, HEK-239T cells were then added. […]

[5] = tested on: rat PC-12 pheochromocytoma; test: STEP transfection efficiency with different cell surface ligands in the transfection complex; conditions: PC-12 cells; ligand in the transfection complex; GFP fluorescence; penton protein 0.64 mg/ml
Experimental: In the following experiments, transfection complexes were formed as described in Example 1, except that in the preparation of some transfection complexes, purified penton protein was used instead of transferring the penton protein was used at a concentration of 0.64 mg/ml. Transfection complexes were thus prepared with either transferrin or penton protein. After immobilizing the complexes as described in Example 1, the cell lines rat PC-12 pheochromocytoma and HEK-293T were transfected as described in Example 1.
The results are shown in FIG. 4 as sets of images; the cell line is indicated at the top of the images, and the ligand used in the transfection complex is indicated to the right of the images. The images under each indicated cell line are either brightfield images (to the left) or fluorescence images (to the right).

T1 sequence (P21728 whole entry): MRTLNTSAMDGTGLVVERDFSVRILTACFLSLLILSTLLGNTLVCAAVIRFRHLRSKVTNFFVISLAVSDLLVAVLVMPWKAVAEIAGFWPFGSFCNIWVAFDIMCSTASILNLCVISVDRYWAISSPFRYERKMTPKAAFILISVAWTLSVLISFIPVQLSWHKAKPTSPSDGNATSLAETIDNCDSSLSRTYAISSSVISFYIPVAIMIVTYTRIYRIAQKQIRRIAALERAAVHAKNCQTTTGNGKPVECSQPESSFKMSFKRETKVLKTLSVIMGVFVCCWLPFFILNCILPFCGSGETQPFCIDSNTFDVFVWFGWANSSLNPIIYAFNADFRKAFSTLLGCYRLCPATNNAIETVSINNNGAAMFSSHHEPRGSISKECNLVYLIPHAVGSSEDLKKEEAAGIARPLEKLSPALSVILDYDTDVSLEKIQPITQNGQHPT
T2 sequence (Q01726 whole entry): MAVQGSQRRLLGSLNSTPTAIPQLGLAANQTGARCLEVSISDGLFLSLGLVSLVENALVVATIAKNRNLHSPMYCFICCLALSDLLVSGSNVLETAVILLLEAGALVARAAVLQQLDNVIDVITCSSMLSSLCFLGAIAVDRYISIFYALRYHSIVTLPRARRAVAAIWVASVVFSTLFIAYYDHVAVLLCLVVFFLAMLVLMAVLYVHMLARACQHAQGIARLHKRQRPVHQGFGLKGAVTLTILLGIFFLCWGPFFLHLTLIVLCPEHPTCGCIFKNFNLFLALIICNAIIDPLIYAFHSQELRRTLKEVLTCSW

Row | Compound | Pixels per spot in STEP D1 activation experiment [1] | Pixels per spot in STEP D1 activation experiment [2] | luciferase activity, dose response curve of the MC1R [4] | further results
1 | C=CCN1CCc2c(cc(O)c(O)c2Cl)C(c2ccccc2)C1 (stereo not drawn) [Cl-APB, Chloro-APB] | 46 + 38 pixels per spot | 447 + 38 pixels per spot | – | expression of the green fluorescent protein reporter ([2]; cells expressing the D1 receptor, fluorescence microscopy): significantly greater expression
2 | CC(C)Cn1c(=O)n(C)c(=O)c2[nH]cnc21 [UBMX, IBMX] | 65 + 32 pixels per spot | 165 + 35 pixels per spot | – | –
3 | C[C@H]1c2cccc(O)c2C(=O)C2=C(O)[C@]3(O)C(=O)C(C(N)=O)=C(O)[C@@H](N(C)C)[C@@H]3[C@@H](O)[C@@H]21 [doxycycline] | – | – | – | cells on the pBi-EGFP spot with detectable GFP expression [3]: 20%
4 | N-acetyl-[Cys^4,10,D-Phe^7]-αMSH | – | – | signal is well above background | –
5 | transferrin: ligand for a receptor which is endocytosed, used as complexing agent in the transfection complex | – | – | – | transfection efficiency [5]: less than 10%
6 | αMSH | – | – | signal is well above background | –

Reference: patent US6902933B2, “Surface transfection and expression procedure” (Regents of the University of Michigan, priority 2000, dated 2005)
